The text below walks through data of ChEMBL document CHEMBL4138216, “Design, synthesis and structure-activity relationship of a focused library of β-phenylalanine derivatives as novel eEF2K inhibitors with apoptosis-inducing mechanisms in breast cancer” (Eur J Med Chem, 2018).

Activity calls are given as the source filed them. The rule behind the calls is not given here.

The IC50 is the concentration that gives 50% inhibition. The low end stands for greater potency in that assay, the high end for weaker potency in that assay.

In data set [1] the test system is MDA-MB-436. The data set can be described thus: Induction of apoptosis in human MDA-MB-436 cells assessed as DNA condensation after 12 to 36 hrs by Hoechst 33258 staining-based fluorescence assay. Type of data set: functional, cell-based.
Data set [2] has as its system Mus musculus. The data set can be described thus: Toxicity in BALB/c nude mouse xenografted with human MDA-MB-436 cells assessed as effect on kidney weight at 25 to 100 mg/kg, ig qd measured after 24 days. Type of data set: organism-based. Particulars: in vivo, po, 576 h. Background: A xenograft is tissue or cells of one species grown in another, often human tumour cells in immunodeficient mice.

Data set [3] concerns MDA-MB-231. The data set can be described thus: Induction of apoptosis in human MDA-MB-231 cells xenografted in BALB/c nude mouse assessed as increase in PARP cleavage at 25 to 100 mg/kg, ig qd measured after 24 days by Western blot method. Type of data set: functional, organism-based.
Data set [4] has as its system MDA-MB-436. The data set can be described thus: Induction of apoptosis in human MDA-MB-436 cells assessed as membrane blebbing by phase contrast microscopy. The data set is classed as functional, cell-based.
Data set [5] deals with Mus musculus. The data set can be described thus: Toxicity in BALB/c nude mouse xenografted with human MDA-MB-231 cells assessed as body weight loss at 25 mg/kg, ig qd measured every 3 days for 24 days during compound dosing. Particulars: in vivo, po. Type of data set: organism-based.
Data set [6] has as its system MDA-MB-436. The data set can be described thus: Induction of apoptosis in human MDA-MB-436 cells assessed as upregulation of Bax expression after 12 to 36 hrs by Western blot method. Type of data set: functional, cell-based.
Data set [7] relates to MDA-MB-231. The data set can be described thus: cells. The note with it: Homo sapiens, MDA-MB-231, 24 h.
Description: Antiproliferative activity against human MDA-MB-231 cells assessed as decrease in cell viability after 24 hrs by MTT assay
Data set [8] deals with Mus musculus. The data set can be described thus: Toxicity in BALB/c nude mouse xenografted with human MDA-MB-436 cells assessed as body weight loss at 50 to 100 mg/kg, ig qd measured every 3 days for 24 days during compound dosing. The data set is classed as organism-based. Particulars: in vivo, po, 576 h.
Data set [9] has as its system Mus musculus. The data set can be described thus: Toxicity in BALB/c nude mouse xenografted with human MDA-MB-436 cells assessed as body weight loss at 25 mg/kg, ig qd measured every 3 days for 24 days during compound dosing. Type of data set: organism-based. The note with it: in vivo, po, 576 h.
In data set [10] the test system is Mus musculus. The data set can be described thus: Toxicity in BALB/c nude mouse xenografted with human MDA-MB-231 cells assessed as body weight loss at 50 to 100 mg/kg, ig qd measured every 3 days for 24 days during compound dosing. Particulars: in vivo, po, 576 h. Type of data set: organism-based.
The subject of data set [11] is MDA-MB-231. The data set can be described thus: Induction of apoptosis in human MDA-MB-231 cells xenografted in BALB/c nude mouse at 25 to 100 mg/kg, ig qd measured after 24 days by TUNEL assay. Type of data set: functional, organism-based.

For `N#Cc1ccc(S(=O)(=O)NC(CC(=O)O)c2ccc(Cl)cc2Cl)cc1` (stereo unspecified), the outcome in the data set with MDA-MB-436 [1], in the data set with MDA-MB-231 [3], in the data set with MDA-MB-436 [4], with MDA-MB-436 [6] and in the data set with MDA-MB-231 [11] was Active. Also, the Activity result in the data set on Mus musculus [2] is “Non-Toxic”; in the data set on Mus musculus [5], “Toxic”; in the data set with Mus musculus [8] it was “Non-Toxic”; in the data set with Mus musculus [9], “Toxic”; with Mus musculus [10] it was “Non-Toxic”. The same molecule displayed an IC50 with MDA-MB-231 [7] of 12.6 µM.
